Assay results taken from PubChem BioAssay (NCI).
Values joined by “and” are separate entries in the source; they are usually repeats but may differ in a detail not shown here. Identical values can stand only once.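 Results reflect a 48-hour exposure of cells in 96-well plates to compound at five concentrations. GI50 marks 50% less growth. TGI denotes the concentration required for complete inhibition of growth.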

Experiments:
Experiment in all cases: NCI anticancer screen, dose series, 48 h
SF-268 CNS = system: SF-268 CNS
RPMI-8226 leukemia = system: RPMI-8226 leukemia
U251 CNS = system: U251 CNS
SK-MEL-2 melanoma = system: SK-MEL-2 melanoma
OVCAR-4 ovarian = system: OVCAR-4 ovarian
HCT-15 colon = system: HCT-15 colon
MDA-MB-435 = system: MDA-MB-435
SF-295 CNS = system: SF-295 CNS
HL-60(TB) leukemia = system: HL-60(TB) leukemia
SR leukemia = system: SR leukemia

| Structure (SMILES) | TGI (SF-268 CNS) | TGI (RPMI-8226 leukemia) | TGI (U251 CNS) | TGI (SK-MEL-2 melanoma) | TGI (OVCAR-4 ovarian) | TGI (HCT-15 colon) | GI50 (SF-268 CNS) | GI50 (MDA-MB-435) | TGI (MDA-MB-435) | GI50 (SF-295 CNS) | TGI (SF-295 CNS) | GI50 (RPMI-8226 leukemia) | GI50 (U251 CNS) | GI50 (SK-MEL-2 melanoma) | GI50 (OVCAR-4 ovarian) | GI50 (HCT-15 colon) | TGI (HL-60(TB) leukemia) | GI50 (HL-60(TB) leukemia) | TGI (SR leukemia) |
| --- | --- | --- | --- | --- | --- | --- | --- | --- | --- | --- | --- | --- | --- | --- | --- | --- | --- | --- | --- |
| CC1=N/C(=C/c2ccc3c(c2)OCO3)C(=O)O1 | > 100 µM | > 100 µM | > 100 µM | > 100 µM | > 100 µM | > 100 µM | – | – | – | – | – | – | – | – | – | – | – | – | – |
| Clc1c(Cl)[n+](Cc2ccc3ccccc3c2)cn1Cc1ccc2ccccc2c1 | 2.55 µM | 3.55 µM | 2.94 µM | 3.24 µM | 3 µM | 3.62 µM | 1.22 µM | 1.24 µM | 2.64 µM | 1.4 µM | 2.82 µM | 1.25 µM | 1.53 µM | 1.67 µM | 1.36 µM | 1.82 µM | – | – | – |
| O=C(CN(/C=C/C(=O)C(F)(F)F)c1ccc(Cl)cc1)c1ccc(Cl)cc1 | 29.4 µM | 37.7 µM | 20.5 µM | 14.4 µM | 32.4 µM | 20.4 µM | 11.5 µM | 7.83 µM | 29 µM | 4.66 µM | 17.7 µM | 11.5 µM | 7.53 µM | 3.88 µM | 12 µM | 6.83 µM | – | – | – |
| COC(=O)[C@@H]1c2cc3c(c(O)c2[C@@H](OC2OC(C)C(OC)C(C)(OC)C2OC)C[C@]1(C)O)C(=O)c1c(O)cc2c(c1C3=O)O[C@H]1O[C@]2(C)[C@H](O)[C@@H](N(C)C)[C@@H]1O (some centres not stated) | 0.329 µM and 0.135 µM | 0.0557 µM | 0.443 µM and 0.236 µM | 0.0134 µM and 0.0177 µM | 0.291 µM | 1.14 µM | – | – | 0.188 µM | – | 0.254 µM and 1.22 µM | – | – | – | – | 0.117 µM | 0.107 µM | – | – |
| NC(=O)NNC(=O)CCn1[nH]c(=O)c(Cl)c(Cl)c1=O | > 100 µM | – | > 100 µM | > 100 µM | > 100 µM | > 100 µM | – | – | – | – | > 100 µM | – | – | – | – | – | > 100 µM | – | – |
| CC1(C)OC2C(CCP(=O)(O)O)OC(c3nc(C(N)=O)cs3)C2O1 (configuration not stated) | > 100 µM | > 100 µM | > 100 µM | > 100 µM | > 100 µM | > 100 µM | – | – | – | – | – | – | – | – | – | – | – | – | – |
| COc1cc(/C=C2\CC3C4CC=C5C[C@@H](OC(C)=O)CC[C@]5(C)C4CC[C@]3(C)C2=O)ccc1OCCN1CCCCC1 (some centres not stated) | 31.4 µM | – | 8.26 µM | 28.4 µM | 49 µM | 3.25 µM | 3.39 µM | 1.93 µM | 4.28 µM | 2.41 µM | 5.08 µM | – | 2.41 µM | 10.1 µM | 15.1 µM | 1.29 µM | – | – | – |
| COc1ccc2ncn(-c3cc(O[C@H](C)c4ccccc4C(F)(F)F)c(C(N)=O)s3)c2c1 | 8.95 µM | 8.44 µM | 6.24 µM | 4.82 µM | 16.1 µM | 17.2 µM | 0.235 µM | 0.0466 µM | 0.155 µM | 0.162 µM | 6.16 µM | 0.627 µM | 0.166 µM | 0.12 µM | 3.49 µM | 0.134 µM | 1.01 µM | 0.0905 µM | – |
| CCOC(=O)Cc1c(C)c2cc(C(=O)c3ccccc3)c(O)cc2oc1=O | 84.9 µM | > 100 µM | 74.2 µM | 40.2 µM | > 100 µM | > 100 µM | – | – | > 100 µM | – | > 100 µM | – | – | – | – | – | 53.8 µM | – | – |
| N#C/C(=C\c1cc(O)cc(O)c1)C(N)=O | > 100 µM | > 100 µM | > 100 µM | > 100 µM | > 100 µM | > 100 µM | – | – | – | – | > 100 µM | – | – | – | – | – | – | – | – |
| C/C=C(\C)c1cc(=O)c2c(C)cc3c(c2o1)C(=O)c1c(O)c(C2CC(C)(N(C)C)C(OC(C)=O)C(C)O2)cc(C2CC(N(C)C)C(O)C(C)O2)c1C3=O (configuration not stated) | 9.56 µM | > 50 µM | > 50 µM | 2.87 µM | 10.2 µM | 12.2 µM | – | – | 3.45 µM | – | > 16.9 µM | – | – | – | – | – | > 50 µM | – | – |
| C=CSCCC(N)C(=O)O (configuration not stated) | > 100 µM | – | > 100 µM | – | > 100 µM | > 100 µM | – | – | – | – | > 100 µM | – | – | – | – | – | > 100 µM | – | > 100 µM |
| COc1ccc(C(=O)C(CN(C)C)CN(C)C)cc1 | 42.3 µM | 6.67 µM | 34.1 µM | 36.8 µM | – | 6.85 µM | 13.7 µM | 2.84 µM | 8.58 µM | 21.2 µM | 52.2 µM | 2.45 µM | 14.2 µM | 16.7 µM | – | 2.47 µM | 1.87 µM | 0.116 µM | – |
| O=c1c2c(nc3n1CCS3)[nH]c1cc([N+](=O)[O-])ccc12 | > 100 µM | > 100 µM | > 100 µM | > 100 µM | > 100 µM | > 100 µM | > 100 µM | > 100 µM | > 100 µM | > 100 µM | > 100 µM | > 100 µM | > 100 µM | > 100 µM | > 100 µM | > 100 µM | > 100 µM | 20.1 µM | – |
| COc1c/c(=C2\C=c3ccccc3=N2)[nH]/c1=C\c1[nH]c(C)cc1C | 37.7 µM | 2.9 µM | 6.28 µM | 2.27 µM | 4.83 µM | 4.33 µM | 0.0631 µM | 0.0136 µM | 0.0951 µM | 0.034 µM | 0.593 µM | < 0.0151 µM | < 0.0337 µM | 0.0753 µM | 0.0638 µM | < 0.0225 µM | 12.8 µM | < 0.0167 µM | – |
| CC(C)(C)C1=CC(=C(P(=O)(O)O)P(=O)(O)O)C=C(C(C)(C)C)C1=O | > 50 µM | > 50 µM | – | > 50 µM | > 50 µM | > 50 µM | – | – | – | – | > 50 µM | – | – | – | – | – | > 50 µM | – | – |
| CC(=O)Nc1ccc(/C=C/C(=O)c2sc(-c3cccnc3)nc2C)cc1 | > 100 µM | > 100 µM | > 100 µM | > 100 µM | – | > 100 µM | – | – | – | – | > 100 µM | – | – | – | – | – | > 100 µM | – | – |
| CN(CCS(=O)(=O)N1C(=O)C2CCCN2C(=O)[C@@H]1Cc1ccccc1)C(=O)OCc1ccccc1 (some centres not stated) | > 100 µM | 45.4 µM | > 100 µM | – | > 100 µM | > 100 µM | – | – | – | – | > 100 µM | – | – | – | – | – | 27.4 µM | – | > 100 µM |
| NCCSSCc1ccccc1CSSCCN | > 100 µM | > 100 µM | > 100 µM | – | > 100 µM | > 100 µM | – | – | – | – | > 100 µM | – | – | – | – | – | 29.6 µM | – | > 100 µM |
